# According to patent US20260007133A1, “HERBICIDAL COMPOSITION COMPRISING AZINE COMPOUNDS” (BASF SE, priority 2022, published 2026):
# Where two headings read alike, the source gives them in different places.
# Tests used:
# Format in all cases: in vivo
# Digitaria sanguinalis = assay: Greenhouse post-emergence (POST) herbicidal test on DIGSA; conditions: for % activity: DIGSA POST
# Description: (§1) The culture containers used were plastic pots containing loamy sand with approximately 3.0% of humus as substrate. The seeds of the test plants were sown separately for each species.
# (§2) For the post-emergence treatment, the test plants were grown to a plant height of from 3 to 15 cm, depending on the plant habit, and only then treated with the active compounds which had been suspended or emulsified in water. To this end, the test plants were either sown directly, and grown in the same containers, or they were first grown separately as seedlings and transplanted into the test containers a few days prior to treatment.
# (§3) Depending on the species, the plants were kept at 10-25° C. and 20-35° C., respectively.
# (§4) The test period extended over 2 to 4 weeks. During this time, the plants were tended and their response to the individual treatments was evaluated.
# (§5) Evaluation was carried out using a scale from 0 to 100. 100 means no emergence of the plants, or complete destruction of at least the above-ground parts, and 0 means no damage or normal course of growth. A good herbicidal activity is given at values of at least 70, and very good herbicidal activity is given at values of at least 85.
# (§6) If not stated differently, the respective components A and B, and if appropriate, C were formulated as a 5% by weight strength emulsion concentrate and, with addition of the amount of solvent system, introduced into the spray liquor used for applying the active compound.
# (§7) As indicated application was either post emergent (POST) at the respective growth stage (GS) of the weed (BBCH code), or pre-emergent (PRE). […]
# Euphorbia heterophylla [1] = assay: Greenhouse post-emergence (POST) herbicidal test on EPHHL; conditions: for % activity: EPHHL POST
# Description: as §1, §2, §3, §4, §5, §6, §7
# Commelina benghalensis = assay: Greenhouse pre-emergence (PRE) herbicidal test on COMBE; conditions: Commelina benghalensis, pre-emergence
# Description: as §1
# (§8) The containers were irrigated gently to promote germination and growth and subsequently covered with transparent plastic hoods until the plants had rooted.
# as §3, §4, §5, §7
# Echinochloa crus-galli [2] = assay: Greenhouse post-emergence (POST) herbicidal test on ECHCG; conditions: Echinochloa crus-galli, post-emergence
# Description: as §1, §2, §3, §4, §5, §6, §7
# Abutilon theophrasti [3] = assay: Greenhouse pre-emergence (PRE) herbicidal test on ABUTH; conditions: Abutilon theophrasti, pre-emergence, 480 h, PRE, 20 DAT
# Description: as §1, §8, §3, §4, §5, §7
# Euphorbia heterophylla [4] = assay: Greenhouse pre-emergence (PRE) herbicidal test on EPHHL; conditions: Euphorbia heterophylla, pre-emergence, 480 h, PRE, 20 DAT
# Description: as §1, §8, §3, §4, §5, §7
# Abutilon theophrasti [5] = assay: Greenhouse post-emergence (POST) herbicidal test on ABUTH; conditions: for % activity: ABUTH POST
# Description: as §1, §2, §3, §4, §5, §6, §7
# Alopecurus myosuroides = assay: Greenhouse pre-emergence (PRE) herbicidal test on ALOMY; conditions: Alopecurus myosuroides, pre-emergence; for inhibition at 6.25 g/ha: read-out: % activity
# Description: as §1, §8, §3, §4, §5, §7
# Ambrosia artemisiifolia = assay: Greenhouse pre-emergence (PRE) herbicidal test on AMBEL; conditions: PRE, AMBEL, 20 DAT
# Description: as §1, §8, §3, §4, §5, §7
# Setaria viridis = assay: Greenhouse pre-emergence (PRE) herbicidal test on SETVI; conditions: for inhibition at 6.25 g/ha / inhibition at 12.5 g/ha: read-out: % activity
# Description: as §1
# For the pre-emergence treatment, the active compounds, suspended or emulsified in water, were applied directly after sowing by means of finely distributing nozzles. The containers were irrigated gently to promote germination and growth and subsequently covered with transparent plastic hoods until the plants had rooted. This cover caused uniform germination of the test plants unless this was adversely affected by the active compounds.
# as §3, §4, §5, §6, §7
# Ipomoea hederacea = assay: Greenhouse post-emergence (POST) herbicidal test on IPOHE
# Description: as §1, §2, §3, §4, §5, §6
# As indicated application was either post emergent (POST) at the respective growth stage (GS) of the weed (BBCH code), or pre-emergent (PRE).
# Assessment was 20 days after treatment (DAT).
# Geranium pusillum = assay: Greenhouse post-emergence (POST) herbicidal test on GERPU; conditions: Geranium pusillum, post-emergence
# Description: as §1, §2, §3, §4, §5, §6, §7
# Amaranthus retroflexus = assay: Greenhouse post-emergence (POST) herbicidal test on AMARE
# Description: as §1, §2, §3, §4, §5, §6, §7
# Lolium multiflorum = assay: Greenhouse pre-emergence (PRE) herbicidal test on LOLMU
# Description: as §1, §8, §3, §4, §5, §7
# Echinochloa crus-galli [6] = assay: Greenhouse pre-emergence (PRE) herbicidal test on ECHCG
# Description: as §1, §8, §3, §4, §5, §7
# [7] = Amaranthus retroflexus, post-emergence, read-out: % activity
# [8] = Echinochloa crus-galli, pre-emergence, 480 h, read-out: % activity
# [9] = Setaria viridis, pre-emergence, 480 h
smiles,measurement,setting,value
CC(C)N1C(=O)c2ccccc2NS1(=O)=O [Bentazone],inhibition at 240 g/ha,"Digitaria sanguinalis; Digitaria sanguinalis, post-emergence, 480 h, POST, DIGSA, use rate 240 gai/ha, 20 DAT, read-out: solo application % activity",0%
same,inhibition at 240 g/ha,"Euphorbia heterophylla [1]; Euphorbia heterophylla, post-emergence, 480 h, POST, EPHHL, use rate 240 gai/ha, 20 DAT, read-out: solo application % activity",0%
same,inhibition at 480 g/ha,"Euphorbia heterophylla [1]; Euphorbia heterophylla, post-emergence, 480 h, POST, EPHHL, use rate 480 gai/ha, 20 DAT, read-out: solo application % activity",0%
same,inhibition at 240 g/ha,"Commelina benghalensis; 480 h, PRE, COMBE, use rate 240 gai/ha, 20 DAT, read-out: solo application % activity",0%
same,inhibition at 240 g/ha,"Echinochloa crus-galli [2]; 480 h, POST, ECHCG, use rate 240 gai/ha, 20 DAT, read-out: solo application % activity",10%
same,inhibition at 480 g/ha,"Echinochloa crus-galli [2]; 480 h, POST, ECHCG, use rate 480 gai/ha, 20 DAT, read-out: solo application % activity",30%
same,inhibition at 240 g/ha,"Abutilon theophrasti [3]; ABUTH, use rate 240 gai/ha, read-out: solo application % activity",30%
same,inhibition at 240 g/ha,"Euphorbia heterophylla [4]; EPHHL, use rate 240 gai/ha, read-out: solo application % activity",5%
same,inhibition at 480 g/ha,"Euphorbia heterophylla [4]; EPHHL, use rate 480 gai/ha, read-out: solo application % activity",5%
same,inhibition at 480 g/ha,"Abutilon theophrasti [5]; Abutilon theophrasti, post-emergence, 480 h, POST, ABUTH, use rate 480 gai/ha, 20 DAT, read-out: solo application % activity",10%
same,inhibition at 240 g/ha,"Alopecurus myosuroides; 480 h, PRE, ALOMY, use rate 240 gai/ha, 20 DAT, read-out: solo application % activity",15%
same,inhibition at 240 g/ha,"Ambrosia artemisiifolia; Ambrosia artemisiifolia, pre-emergence, 480 h, use rate 240 gai/ha, read-out: solo application % activity",0%
same,inhibition at 480 g/ha,"Ambrosia artemisiifolia; Ambrosia artemisiifolia, pre-emergence, 480 h, use rate 480 gai/ha, read-out: solo application % activity",0%
same,inhibition at 240 g/ha,"Setaria viridis; Setaria viridis, pre-emergence, 480 h, PRE, SETVI, use rate 240 gai/ha, 20 DAT, read-out: solo application % activity",10%
same,inhibition at 480 g/ha,"Setaria viridis; Setaria viridis, pre-emergence, 480 h, PRE, SETVI, use rate 480 gai/ha, 20 DAT, read-out: solo application % activity",0%
same,inhibition at 240 g/ha,"Ipomoea hederacea; Ipomoea hederacea, post-emergence, 480 h, POST, IPOHE, use rate 240 gai/ha, 20 DAT, read-out: solo application % activity",0%
"Cc1cccc(C2CC2)c1Oc1nnc(Cl)cc1OC(=O)N1CCOCC1 [Cyclopyrimorate, cyclopyrimorate]",% activity,Digitaria sanguinalis; use rate 25 gai/ha,10%
same,% activity,Digitaria sanguinalis; use rate 200 gai/ha,40%
same,% activity,Abutilon theophrasti [5]; use rate 25 gai/ha,5%
same,% activity,"Ipomoea hederacea; IPOHE POST, use rate 25 gai/ha",40%
"CCCC(=NOCC)C1=C(O)CC(C2CCCSC2)CC1=O (stereo not shown) [Cycloxydim, cycloxydim]",inhibition at 20 g/ha,"Euphorbia heterophylla [1]; Euphorbia heterophylla, post-emergence, 480 h, POST, EPHHL, use rate 20 gai/ha, 20 DAT, read-out: solo application % activity",0%
same,pest or weed control at 5 g/ha,Abutilon theophrasti [3]; 5 gai/ha,0%
same,inhibition at 5 g/ha,"Abutilon theophrasti [3]; ABUTH, use rate 5 gai/ha, read-out: solo application % activity",0%
same,pest or weed control at 5 g/ha,Euphorbia heterophylla [4]; 5 gai/ha,5%
same,inhibition at 5 g/ha,"Euphorbia heterophylla [4]; EPHHL, use rate 5 gai/ha, read-out: solo application % activity",5%
same,inhibition at 20 g/ha,"Euphorbia heterophylla [4]; EPHHL, use rate 20 gai/ha, read-out: solo application % activity",10%
same,pest or weed control at 5 g/ha,"Abutilon theophrasti [5]; Abutilon theophrasti, post-emergence, 480 h, POST, 5 gai/ha, 20 DAT",0%
same,inhibition at 5 g/ha,"Abutilon theophrasti [5]; Abutilon theophrasti, post-emergence, 480 h, POST, ABUTH, use rate 5 gai/ha, 20 DAT, read-out: solo application % activity",0%
same,inhibition at 20 g/ha,"Abutilon theophrasti [5]; Abutilon theophrasti, post-emergence, 480 h, POST, ABUTH, use rate 20 gai/ha, 20 DAT, read-out: solo application % activity",0%
same,pest or weed control at 20 g/ha,"Alopecurus myosuroides; 480 h, PRE, 20 gai/ha, 20 DAT",60%
same,inhibition at 5 g/ha,"Alopecurus myosuroides; 480 h, PRE, ALOMY, use rate 5 gai/ha, 20 DAT, read-out: solo application % activity",15%
same,inhibition at 20 g/ha,"Alopecurus myosuroides; 480 h, PRE, ALOMY, use rate 20 gai/ha, 20 DAT, read-out: solo application % activity",60%
same,inhibition at 5 g/ha,"Geranium pusillum; 480 h, POST, GERPU, use rate 5 gai/ha, 20 DAT, read-out: solo application % activity",5%
same,inhibition at 5 g/ha,"Amaranthus retroflexus; Amaranthus retroflexus, post-emergence, 480 h, POST, AMARE, use rate 5 gai/ha, 20 DAT, read-out: solo application % activity",0%
same,inhibition at 5 g/ha,"Ambrosia artemisiifolia; Ambrosia artemisiifolia, pre-emergence, 480 h, use rate 5 gai/ha, read-out: solo application % activity",0%
same,inhibition at 20 g/ha,"Ambrosia artemisiifolia; Ambrosia artemisiifolia, pre-emergence, 480 h, use rate 20 gai/ha, read-out: solo application % activity",0%
same,pest or weed control at 5 g/ha,"Ipomoea hederacea; Ipomoea hederacea, post-emergence, 480 h, POST, 5 gai/ha, 20 DAT",0%
same,inhibition at 5 g/ha,"Ipomoea hederacea; Ipomoea hederacea, post-emergence, 480 h, POST, IPOHE, use rate 5 gai/ha, 20 DAT, read-out: solo application % activity",0%
same,inhibition at 20 g/ha,"Ipomoea hederacea; Ipomoea hederacea, post-emergence, 480 h, POST, IPOHE, use rate 20 gai/ha, 20 DAT, read-out: solo application % activity",0%
"O=C(O)CNCP(=O)(O)O [Glyphosate, glyphosate]",inhibition at 100 g/ha,Echinochloa crus-galli [2]; read-out: % activity,30%
same,inhibition at 200 g/ha,Echinochloa crus-galli [2]; read-out: % activity,35%
same,inhibition at 200 g/ha,"Abutilon theophrasti [5]; Abutilon theophrasti, post-emergence, read-out: % activity",25%
same,inhibition at 100 g/ha,Geranium pusillum; read-out: % activity,45%
same,inhibition at 100 g/ha,Amaranthus retroflexus; [7],10%
same,inhibition at 200 g/ha,Amaranthus retroflexus; [7],80%
same,inhibition at 200 g/ha,"Ipomoea hederacea; Ipomoea hederacea, post-emergence, read-out: % activity",15%
"CCC/C(=N\OCC)C1=C(O)CC(CC(C)SCC)CC1=O (stereo not shown) [Sethoxydim, sethoxydim]",inhibition at 6.25 g/ha,"Lolium multiflorum; Lolium multiflorum, pre-emergence, 480 h, read-out: % activity",15%
same,inhibition at 6.25 g/ha,Commelina benghalensis; read-out: % activity,0%
same,inhibition at 6.25 g/ha,Alopecurus myosuroides; 480 h,20%
same,inhibition at 6.25 g/ha,Alopecurus myosuroides,20%
same,inhibition at 6.25 g/ha,Echinochloa crus-galli [6]; [8],10%
same,inhibition at 12.5 g/ha,Echinochloa crus-galli [6]; [8],40%
same,inhibition at 6.25 g/ha,Setaria viridis; [9],5%
same,inhibition at 12.5 g/ha,Setaria viridis; [9],60%
same,inhibition at 6.25 g/ha,"Setaria viridis; Setaria viridis, pre-emergence",5%
same,inhibition at 12.5 g/ha,"Setaria viridis; Setaria viridis, pre-emergence",60%
"CN1C[C@H](c2cccc(C(F)(F)F)c2)[C@@H](C(=O)Nc2ccccc2F)C1=O [Tetflupyrolimet, tetflupyrolimet]",% activity,Euphorbia heterophylla [1]; use rate 31.25 gai/ha,0%
same,% activity,Euphorbia heterophylla [1]; use rate 250 gai/ha,0%
same,% activity,Abutilon theophrasti [5]; use rate 250 gai/ha,5%
same,% activity,"Amaranthus retroflexus; AMARE POST, use rate 250 gai/ha",35%
same,% activity,"Ipomoea hederacea; IPOHE POST, use rate 31.25 gai/ha",0%
"Cc1c(C(=O)c2cnn(C)c2O)ccc(S(C)(=O)=O)c1C1=NOCC1 [Topramezone, topramezone]",% activity,"Lolium multiflorum; PRE, LOLMU, use rate 3.125 gai/ha, 20 DAT",0%
same,% activity,"Echinochloa crus-galli [6]; PRE, ECHCG, use rate 6.25 gai/ha, 20 DAT",10%
same,% activity,Ambrosia artemisiifolia; use rate 6.25 gai/ha,0%
same,% activity,"Setaria viridis; PRE, SETVI, use rate 3.125 gai/ha, 20 DAT",0%
same,% activity,"Ipomoea hederacea; POST, IPOHE, use rate 3.125 gai/ha, 20 DAT",15%
same,% activity,"Ipomoea hederacea; POST, IPOHE, use rate 6.25 gai/ha, 20 DAT",35%
